Assay results: publication PMC12677607, “Identification of a Pair of Linear or Cyclic Naturally Inspired Bifunctional Lipopeptide Antibiotics That Overcome Antimicrobial Resistance” (Advanced Science, 2025)
Converted amounts (≈) assume the structure as drawn. Bridge positions count the residues as written; N and C are the ends. Square brackets hold non-standard residues; d marks the D form. Peptide text beside a SMILES is read from it. * marks the point of attachment. Myristoyl = CCCCCCCCCCCCCC(=O)*; Orn = NCCC[C@H](N)C(=O)O; Dab = NCC[C@H](N)C(=O)O; Dap = NC[C@H](N)C(=O)O

Legend:
[1] = test system: meropenem-resistant A. baumannii 1104008; experiment: Neutropenic thigh infection model; format: in vivo, mouse; conditions: A. baumannii 1104008 thigh, 25 mg kg^−1 s.c. at 2, 8, 14, 20 h, burden at 24 h, n = 8 thighs
Description: (§1) Six‐week‐old female ICR mice were used in all experiments and housed in a temperature‐controlled room (25 °C) with 12‐h light/dark cycle and 30% relative humidity. Meropenem‐resistant A. baumannii 1104008 or methicillin‐resistant S. aureus USA300 was cultured in the MH broth containing 50 µg mL^−1 of gentamycin and the MH broth, respectively, at 37 °C and 200 rpm overnight. Then, the strains A. baumannii 1104008 or S. aureus USA300 were washed twice in 0.9% saline and further diluted to verify the bacterial suspension with a challenge inoculum of ≈1.0 × 10^6 CFU in a volume of 0.05 mL per mouse thigh. Mice were rendered neutropenic by receiving 150 and 100 mg kg^−1 of cyclophosphamide via intraperitoneal injection on day‐4 and day‐1 before infection, respectively. For treating the thigh infection caused by A. baumannii 1104008, mice were given 100 µL of vehicle (20% solutol), colistin (25 mg kg^−1, 20% solutol), or aquicidine L (25 mg kg^−1, 20% solutol) at 2, 8, 14, and 20 h after post‐infection via subcutaneous injection. […] All mice were observed after infection for morbidity, and any abnormal signs were recorded. […] The treatment efficacies of aquicidine L or C4 were determined as the bacterial burden reduction in the thighs relative to both the vehicle and colistin‐ or vancomycin‐treated controls. All graphic data were analyzed using the GraphPad Prism software (Prism10).

[2] = test system: K. pneumoniae CRKP 5452 PhoQL348Q; experiment: MIC against colistin-resistant mutant; format: cell-based
Description: (§2) All MIC assays were performed two independent times (n = 2) in 96‐well plates using a broth micro‐dilution method. The lowest concentration of that inhibited visible microbial growth was recorded as the MIC value.
(§3) For most of bacterial strains, overnight cultures were diluted 5000‐fold in LB broth. For E. faecium and S. aureus, overnight cultures were diluted 1000‐ and 10000‐fold in LB broth, respectively. 100 µL of diluted cells was mixed with 100 µL of LB broth containing each peptide ranging from 64 to 0.125 µg mL^−1 at 2‐fold serial dilutions.
(§4) Overnight cultures S. aureus USA300 were diluted 10000‐fold in LB broth, and 100 µL of dilute cell suspension was added to 96‐well plates containing 100 µL serially diluted aquicidine C4, telomycin, and daptomycin (with 15 mM CaCl2). Overnight cultures K. pneumoniae CRKP5452 were diluted 5000‐fold in LB broth, and 100 µL of dilute cell suspension was added to 96‐well plates containing 100 µL serially diluted aquicidine L and colistin. After an incubation of 24 h at 37 °C, the MIC value was determined. […] The MIC value was recorded as described above, and the process was repeated daily for 21 days. Experiments were performed two independent times (n = 2).
(§5) Single‐nucleotide polymorphisms (SNPs) for telomycin‐, daptomycin‐ or colistin‐resistant mutants were identified using SNIPPY by mapping DNBSEQ‐seq reads to the reference genome of S. aureus USA300 or K. pneumoniae CRKP5452.

Shigella Castellani LXX = experiment: MIC assay (broth micro-dilution); format: cell-based; conditions: Table S11; LB broth, 37 °C, 16 h, n = 2
Summary of the method: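 Broth microdilution in LB, run in two independent repeats. Overnight cultures were diluted 5000-fold, except S. aureus at 10000-fold, and mixed with peptide-containing LB (2-fold series, 64 to 0.125 µg mL^−1 before mixing). MIC is the lowest concentration that prevented visible growth.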

[3] = test system: methicillin-resistant S. aureus USA300; experiment: Neutropenic thigh infection model; format: in vivo, mouse; conditions: 50 mg kg^−1 s.c. at 2, 10, 18 h, burden at 24 h, n = 8 thighs
Description: as §1

S. aureus USA300 = experiment: Raising resistant mutants by direct plating; format: cell-based
[4] = test system: vancomycin-resistant E. faecium 35682; experiment: Mouse peritonitis-sepsis model; format: in vivo; conditions: E. faecium 35682, ICR mice, single s.c. dose 1 h after infection, doses 50, 100, 150 mg kg^−1, n = 5
Description: Six‐week‐old female ICR mice were used in all experiments and housed in a temperature‐controlled room (25 °C) with 12‐h light/dark cycle and 30% relative humidity. Mice were observed twice daily for mortality and morbidity. Abnormal clinical signs were recorded if observed and totally monitored for five days. The detailed methods for the mouse peritonitis‐sepsis model were as follows.
Vancomycin‐resistant E. faecium 35682 was cultured in BHI broth at 37 °C fro 16 h and diluted with 5% type II porcine stomach mucin and 0.9% NaCl. E. faecium cell cultures were diluted to provide a challenge inoculum of 4.0 × 10^9 CFU in 0.5 mL and then administered into each mouse via intraperitoneal injection. 25 mice were randomly grouped into five per cohort (n = 5) and each cohort was given a single dose of either vehicle (20% solutol), aquicidine C4 at 50, 100 or 150 mg/kg and daptomycin at 100 mg kg^−1 with 15 mM CaCl2 1 h after infection via subcutaneous injection.

[5] = test system: S. aureus USA300 MprFT345A; experiment: MIC against daptomycin-resistant mutant; format: cell-based
Description: as §2, §3, §4, §5

Structure (SMILES)	reduction in CFUs compared with the vehicle [1]	antibacterial activity (MIC) K. pneumoniae CRKP 5452 PhoQL348Q ([2]; Figure S127a, colistin-resistant mutant from serial passaging)	increase in MIC against resistant mutant compared to wild type ([2]; K. pneumoniae CRKP5452 PhoQ^L348Q vs wild type)	MIC Shigella Castellani LXX (Shigella Castellani LXX)	reduction in CFUs compared with the vehicle [3]	increase in MIC of colonies from direct plating on antibiotic-containing solid media (S. aureus USA300)	minimal dose required for 100% survival [4]	antibacterial activity (MIC) S. aureus USA300 MprFT345A ([5]; Figure S127b, daptomycin-resistant mutant)	increase in MIC against resistant mutant compared to wild type ([5]; S. aureus USA300 MprF^T345A vs wild type)
CCCCCCCCCCCCCC(=O)N[C@@H](CN)C(=O)N[C@H](C(=O)N[C@@H](CC(C)C)C(=O)N[C@@H](CO)C(=O)N[C@@H](CCN)C(=O)N[C@@H](CN)C(=O)N[C@@H](Cc1ccccc1)C(=O)N[C@H](C(=O)N[C@@H](CCCN)C(=O)N[C@@H](CC(N)=O)C(=O)N[C@@H](Cc1ccccc1)C(=O)O)[C@@H](C)CC)[C@@H](C)O [synAQU5-L] (Myristoyl-[Dap]TLS[Dab][Dap]FI[Orn]NF-OH)	3 log10	16 µg/mL	4 fold	8 µg/mL (≈ 5.56 µM)	–	–	–	–	–
CCCCCCCCCCCCCC(=O)N[C@@H](CN)C(=O)N[C@H](C(=O)N[C@@H](CC(C)C)C(=O)N[C@H]1COC(=O)[C@H](Cc2ccccc2)NC(=O)[C@H](CC(N)=O)NC(=O)[C@H](CCCN)NC(=O)[C@H]([C@@H](C)CC)NC(=O)[C@H](Cc2ccccc2)NC(=O)[C@H](CN)NC(=O)[C@H](CCN)NC1=O)[C@@H](C)O [synAQU5-C4] (Myristoyl-[Dap]TLS[Dab][Dap]FI[Orn]NF; ester 4-C)	–	–	–	–	3 log10	did not show more than a one‐fold increase in MIC	100 mg/kg	16 µg/mL	4 fold
